Experiments:
Myzus persicae = experiment: Insecticidal test on Myzus persicae (Example 17); assay type: in vivo; details: 144 h, foliar application on Chinese cabbage, 6 days after application, read-out: control efficacy level (control rate)
Description: The compounds of formula (I), (Ia) and/or (Ib) of the present invention or salts thereof are separately dispersed in water and diluted to 500 ppm and 50 ppm. Chinese cabbage plants are planted in plastic pots (diameter: 8 cm, height: 8 cm). Aphids (Myzus persicae) are propagated on the plants and then the number of surviving aphids is counted. The dispersion is applied to the foliage of the potted plants. After the plants are air dried, these are kept in a greenhouse. 6 days after the application, the number of the alive insects is counted on the plants. The control rate is calculated according to the following formula and the control efficacy is evaluated according to the following criteria. [formula] • Ta: the number of alive insects before the foliar application in a treated plot • T: the number of alive insects after the foliar application in a treated plot • Ca: the number of alive insects before the foliar application in an untreated plot • C: the number of alive insects after the foliar application in an untreated plot • A: the control rate is 100% • B: the control rate is 90 to 99% • C: the control rate is 80 to 89% • D: the control rate is 50 to 79%

Plutella xylostella = experiment: Insecticidal test on Plutella xylostella (Example 15); assay type: in vivo; details: 144 h, Chinese cabbage seedling dip, 6 days after dip treatment, read-out: activity level (corrected mortality rate)
Protocol: The compounds of formula (I), (Ia) and/or (Ib) of the present invention or salts thereof are separately dispersed in water and diluted to 500 ppm and 50 ppm. Ten adults of Plutella xylostella are released onto Chinese cabbage seedlings and allowed to lay eggs thereon. 2 days after the release of the adults, the seedling is dipped in the dispersion for about 30 seconds. After air dried, the seedling is kept in a room at 25° C. 6 days after the dip treatment, the numbers of the dead and alive insects are counted. The corrected mortality rate is calculated according to the following formula and the insecticidal activity is evaluated according to the following criteria.

Spodoptera litura = experiment: Insecticidal test on Spodoptera litura (Example 14); assay type: in vivo; details: foliar, 192 h, 500 ppm, cabbage leaf dip, 2nd-instar larvae, 8 days after inoculation, read-out: activity level (corrected mortality rate)
Protocol: The compounds of formula (I), (Ia) and/or (Ib) of the present invention or salts thereof are separately dispersed in water and diluted to 500 ppm and 50 ppm. Cabbage leaves are dipped in the dispersion for about 30 seconds. After air dried, the leaves are placed in a plastic Petri dish with a diameter of 9 cm and inoculated with ten 2nd-instar larvae of Spodoptera litura, after which the dish is closed and then allowed to stand in a room at 25° C. 8 days after the inoculation, the numbers of the dead and alive insects are counted. The corrected mortality rate is calculated according to the following formula and the insecticidal activity is evaluated according to the following criteria.
[formula] [formula] • A: the corrected mortality rate is 100% • B: the corrected mortality rate is 90 to 99% • C: the corrected mortality rate is 80 to 89% • D: the corrected mortality rate is 50 to 79%

Laodelphax striatellus = experiment: Insecticidal test on Laodelphax striatellus (Example 16); assay type: in vivo; details: 192 h, rice seedling dip, 3rd-instar nymphs, 8 days after inoculation, read-out: activity level (corrected mortality rate)
Protocol: The compounds of formula (I), (Ia) and/or (Ib) of the present invention or salts thereof are separately dispersed in water and diluted to 500 ppm and 50 ppm. Rice plant seedlings are dipped in the dispersion for about 30 seconds. After air dried, the seedlings are put into a separate glass test tube and inoculated with ten 3rd-instar nymphs of Laodelphax striatellus and then the glass test tube is kept in a room at 25° C. 8 days after the inoculation, the numbers of the dead and alive insects are counted. The corrected mortality rate is calculated according to the following formula and the insecticidal activity is evaluated according to the following criteria.

adult C. felis fleas [1] = experiment: Ingestion activity against adult Ctenocephalides felis, membrane feeding, motility (Example 6); details: 48 h, bovine blood via artificial membrane, 48h post treatment, read-out: EC50 (ingestion activity, % motility reduction)
Protocol: Compounds of formulae (I), (Ia) and/or (Ib) dissolved in 100% DMSO are added to bovine blood and offered via an artificial membrane feeding system to adult C. felis fleas. The motility of fleas is then visually inspected 48h post treatment. Efficacy is expressed in % motility reduction compared to controls containing blood treated with DMSO only. A dose response series is implemented to determine EC50 values.

adult C. felis fleas [2] = experiment: Ingestion activity against adult Ctenocephalides felis, membrane feeding, alternative method (Examples 7 and 13)
Protocol: Selected compounds of formula (I), (Ia) and (Ib) and compound “125” of WO 2021/033141 dissolved in 100% DMSO are diluted in bovine blood with sodium heparin anti-coagulant. The resulting formulation is offered via an artificial membrane feeding system to approximately 15 adult C. felis fleas previously dispensed into 24-well plates. The plates are then incubated in a double-chambered device. Visual evaluation for mortality is performed at 48 hours post-treatment. Compound efficacy at a given dose is expressed as percentage mortality and determined by normalization to positive and negative controls. A dose response series is implemented to determine EC50 values.
Compounds of formulae (I), (Ia) and/or (Ib) dissolved in 100% DMSO are diluted in bovine blood with sodium heparin anti-coagulant. The resulting formulation is offered via an artificial membrane feeding system to approximately 15 adult C. felis fleas previously dispensed into 24-well plates. The plates are then incubated in a double-chambered device. Visual evaluation for mortality is performed at 48 hours post-treatment. Compound efficacy at a given dose is expressed as percentage mortality and determined by normalization to positive and negative controls. A dose response series is implemented to determine EC50 values.

[3] = tested on: adult Ctenocephalides felis fleas; experiment: Contact activity against adult Ctenocephalides felis (Example 4); details: adult C. felis, coated pipe cleaner in vial, 72 hours post-treatment, read-out: EC50 (contact activity, percentage mortality)
Protocol: Compounds of formulae (I), (Ia) and/or (Ib) dissolved in 100% DMSO are diluted in acetone to a desired concentration. The resulting formulation is used to coat the fibers of a 0.5-inch-long piece of pipe cleaner placed in a glass scintillation vial. The vial is capped with a rubber gasket and filter paper insert. After the acetone has evaporated, ten adult Ctenocephalides felis fleas are added to each vial. The vials are then incubated at 22° C., 80% relative humidity, and 12 hours of light/12 hours of dark until a visual evaluation for mortality is performed at 72 hours post-treatment. Compound efficacy at a given dose is expressed as percentage mortality and adjusted to remove background mortality observed in control vials containing DMSO only. A dose response series of treated vials is implemented to determine EC50 values.

[4] = Ctenocephalides felis, adult C. felis, bovine blood with sodium heparin, membrane feeding, 48 hours post-treatment, read-out: EC50 (ingestion activity, percentage mortality, alternative method)
[5] = Ctenocephalides felis, alternative method according to Example 7, mortality at 48 hours post-treatment, read-out: C. felis membrane feeding (ingestion/blood feeding) activity EC50
[6] = alternative method according to Example 7, mortality at 48 hours post-treatment, read-out: C. felis membrane feeding (ingestion/blood feeding) activity EC50

SMILES | pest or weed control at 500 ppm (Myzus persicae) | mortality at 500 ppm (Plutella xylostella) | mortality at 500 ppm (Laodelphax striatellus) | EC50 (adult C. felis fleas [1]) | EC50 (adult C. felis fleas [2]; [4]) | EC50 (adult C. felis fleas [2]; [5]) | also measured
CCS(=N)(=O)c1cc(-c2ccc(C3(C#N)CC3)cc2)cnc1-c1nc2cc(C(C)(F)F)cnc2n1C (centres unmarked) [Compound 2] | 100% | 100% | 100% | 1000 to 10000 nM | 1000 to 10000 nM |  | mortality at 500 ppm (Spodoptera litura): 100%
CCS(=N)(=O)c1cc(-c2noc(C3(C(F)(F)F)CC3)n2)cnc1-c1nc2cc(C(F)(F)C3CC3)nnc2n1C (centres unmarked) [Compound 4] |  |  |  | < 1000 nM | < 1000 nM | 474 nM | EC50 [3]: 10000 to 100000 nM
CC[S@](=N)(=O)c1cc(-c2noc(C3CC3)n2)cnc1-c1nc2cc(C(F)(F)C(F)(F)F)cnc2n1C [Compound 7a, (S)-[5-(5-cyclopropyl-1,2,4-oxadiazol-3-yl)-2-[3-methyl-6-(1,1,2,2,2-pentafluoroethyl)-3H-imidazo[4,5-b]pyridin-2-yl]pyridin-3-yl](ethyl)imino-lambda6-sulfanone] |  |  |  |  |  |  | EC50 (adult C. felis fleas [2]; [6]): 385 nM
CC[S@@](=N)(=O)c1cc(-c2noc(C3CC3)n2)cnc1-c1nc2cc(C(F)(F)C(F)(F)F)cnc2n1C [Compound 7b, (R)-[5-(5-cyclopropyl-1,2,4-oxadiazol-3-yl)-2-[3-methyl-6-(1,1,2,2,2-pentafluoroethyl)-3H-imidazo[4,5-b]pyridin-2-yl]pyridin-3-yl](ethyl)imino-lambda6-sulfanone] |  |  |  |  |  |  | EC50 (adult C. felis fleas [2]; [6]): 1350 nM
CC[SH](=N)(O)c1cc(-c2noc(C3CC3)n2)cnc1-c1nc2cc(C(F)(F)C(F)(F)F)nnc2n1C [Compound 8a] |  |  |  |  |  |  | EC50 (adult C. felis fleas [2]; [6]): 482 nM
CCS(=N)(=O)c1cc(-c2noc(C3CC3)n2)cnc1-c1nc2cc(C(C)(F)F)cnc2n1C (centres unmarked) [Compound 10] | 100% | 100% | 100% |  |  |  | 
CCS(=N)(=O)c1cc(-c2noc(C3CC3)n2)cnc1-c1nc2cc(C(F)(F)C3CC3)cnc2n1C (centres unmarked) [Compound 12] | 100% |  |  |  |  |  | mortality at 50 ppm (Plutella xylostella): 100%
CCS(=N)(=O)c1cc(-c2noc(C3CC3)n2)cnc1-c1nc2cc(C(C)(F)F)nnc2n1C (centres unmarked) [Compound 13] |  |  |  | < 1000 nM | 1000 to 10000 nM |  | pest or weed control at 50 ppm (Myzus persicae): 100%; mortality at 50 ppm (Plutella xylostella): 100%; mortality at 50 ppm (Laodelphax striatellus): 100%
CCS(=N)(=O)c1cc(-c2noc(C3CC3)n2)cnc1-c1nc2cc(C(F)(F)C3CC3)nnc2n1C (centres unmarked) [Compound 15] | 100% | 100% | 100% |  | 1000 to 10000 nM |  | 
CCS(=N)(=O)c1cc(-c2ccc(C3(C#N)CC3)cc2)cnc1-c1nc2cc(C(C)(F)F)cn(CC(F)F)c-2c1F (centres unmarked) [Compound 16] |  |  |  |  | 1000 to 10000 nM |  | 
CCS(=N)(=O)c1cc(-c2ccc(C3(C#N)CC3)cc2)cnc1-c1nc2cc(C(F)(F)F)cn(CC(F)F)c-2c1F (centres unmarked) [Compound 17] |  |  |  |  | < 1000 nM | 330 nM | 
CCS(=N)(=O)c1cc(-c2noc(C3(F)CC3)n2)cnc1-c1nc2cc(C(C)(F)F)cnc2n1C (centres unmarked) [Compound 18] |  |  |  |  |  |  | pest or weed control at 50 ppm (Myzus persicae): 100%; mortality at 50 ppm (Plutella xylostella): 100%; mortality at 50 ppm (Laodelphax striatellus): 100%
CCS(=N)(=O)c1cc(-c2cn(C3CC3)cn2)cnc1-c1nc2cc(C(F)(F)C(F)(F)F)cnc2n1C (centres unmarked) [Compound 21] | 100% | 100% | 100% | < 1000 nM | < 1000 nM | 403 nM | EC50 [3]: 10000 to 100000 nM; mortality at 500 ppm (Spodoptera litura): 100%
CCS(=N)(=O)c1cc(-n2cc(C3(C#N)CC3)cn2)cnc1-c1nc2cc(C(F)(F)C(F)(F)F)cnc2n1C (centres unmarked) [Compound 26] | 100% | 100% | 100% | < 1000 nM | < 1000 nM | 875 nM | mortality at 500 ppm (Spodoptera litura): 100%
CCS(=N)(=O)c1cc(-n2cc(C3CC3)nn2)cnc1-c1nc2cc(C(F)(F)C(F)(F)F)cnc2n1C (centres unmarked) [Compound 28] | 100% | 100% | 100% | 1000 to 10000 nM | 1000 to 10000 nM |  | mortality at 500 ppm (Spodoptera litura): 100%
CCS(=N)(=O)c1cc(-c2noc(C3(F)CC3)n2)cnc1-c1nc2cc(C(C)(F)F)nnc2n1C (centres unmarked) [Compound 29] | 100% | 100% | 100% |  | 1000 to 10000 nM |  | EC50 [3]: 10000 to 100000 nM
CCS(=N)(=O)c1cc(-c2noc(C3(F)CC3)n2)cnc1-c1nc2cc(C(F)(F)C(F)(F)F)nnc2n1C (centres unmarked) [Compound 32] |  |  |  | < 1000 nM | < 1000 nM | 417 nM | pest or weed control at 50 ppm (Myzus persicae): 100%; mortality at 50 ppm (Plutella xylostella): 100%; EC50 [3]: < 10000 nM; mortality at 50 ppm (Laodelphax striatellus): 100%
CCS(=N)(=O)c1cc(-n2cc(C3(C#N)CC3)cn2)cnc1-c1nc2cc(C(F)(F)C(F)(F)F)nnc2n1C (centres unmarked) [Compound 33] |  |  |  | 1000 to 10000 nM | < 1000 nM | 437 nM | pest or weed control at 50 ppm (Myzus persicae): 100%; mortality at 50 ppm (Plutella xylostella): 100%; mortality at 50 ppm (Laodelphax striatellus): 100%
CCS(=N)(=O)c1cc(-n2cc(C3CC3)cn2)cnc1-c1nc2cc(C(F)(F)C(F)(F)F)nnc2n1C (centres unmarked) [Compound 34] | 100% | 100% | 100% |  |  |  | EC50 [3]: 10000 to 100000 nM; mortality at 500 ppm (Spodoptera litura): 100%
CCS(=N)(=O)c1cc(-c2ccc(C3(C#N)CC3)cc2)cnc1-n1cc2cnc(C(F)(F)F)cc2n1 (centres unmarked) [Compound 35] |  |  |  | 1000 to 10000 nM | < 1000 nM | 771 nM | 

From patent US20240336615A1, “CYCLOPROPYL-(HETERO)ARYL-SUBSTITUTED ETHYL-SULFOXIME-PYRIDINE DERIVATIVES” (Boehringer Ingelheim Vetmedica GmbH, priority 2023, published 2024)
